# Results from the SangsterLogP compilation.
# Experiment: method code SF, from Recanatgini, M.; Leoni, A.; Baraldi, G. (1991). Partition coefficients of 3-methyl-4-nitropyrazole-5-carboxamides. 16, 127-130.
# Settings: not given
row,logP,Compound
1,2.34,Cc1ccc(NC(=O)c2[nH]nc(C)c2[N+](=O)[O-])cc1

# Same assay, conditions: pH 1.0
row,logD,Compound
1,0.65,CCCNC(=O)c1[nH]nc(C)c1[N+](=O)[O-]
2,0.79,Cc1[nH]nc(C(=O)N2CCCCC2)c1[N+](=O)[O-]
3,0.13,CCNC(=O)c1n[nH]c(C)c1[N+](=O)[O-]
4,1.49,Cc1n[nH]c(C(=O)NCc2ccccc2)c1[N+](=O)[O-]
5,1.27,CCCCNC(=O)c1[nH]nc(C)c1[N+](=O)[O-]
6,3.48,CCCCCCCCNC(=O)c1[nH]nc(C)c1[N+](=O)[O-]
7,0.25,Cc1[nH]nc(C(=O)NC2CC2)c1[N+](=O)[O-]
8,2.46,CCCCCCNC(=O)c1[nH]nc(C)c1[N+](=O)[O-]
9,-0.38,Cc1n[nH]c(C(N)=O)c1[N+](=O)[O-]
10,-0.23,CNC(=O)c1n[nH]c(C)c1[N+](=O)[O-]

# Further lines, the compound ahead of its results:
row,Compound,logD
1,Cc1n[nH]c(C(=O)NC23CC4CC(CC(C4)C2)C3)c1[N+](=O)[O-],2.83
2,CCCCCCCCCCNC(=O)c1[nH]nc(C)c1[N+](=O)[O-],4.48
3,Cc1n[nH]c(C(=O)NCCc2ccccc2)c1[N+](=O)[O-],1.82
4,Cc1n[nH]c(C(=O)NC2CCCCC2)c1[N+](=O)[O-],1.71
5,Cc1n[nH]c(C(=O)N(C)C2CCCCC2)c1[N+](=O)[O-],1.68
6,Cc1n[nH]c(C(=O)NC2CCCC2)c1[N+](=O)[O-],1.24
7,Cc1n[nH]c(C(=O)N(C)Cc2ccccc2)c1[N+](=O)[O-],1.65
8,Cc1n[nH]c(C(=O)N2CCCC2)c1[N+](=O)[O-],0.25
9,Cc1n[nH]c(C(=O)N2CCCCCC2)c1[N+](=O)[O-],1.15
10,Cc1n[nH]c(C(=O)Nc2ccccc2)c1[N+](=O)[O-],1.81
